Test results: ChEMBL document CHEMBL4265945, “Synthesis, biological evaluation and structure-activity relationship of a novel class of PI3Kα H1047R mutant inhibitors” (Eur J Med Chem, 2018)
Active and inactive are the calls of the source. The calls are words filed in the database; no cut-off is given here.

Assays:
[1] = test system: MCF7; assay: cells; conditions: Homo sapiens, MCF7, 72 h
Description: Antiproliferative activity against human MCF7 cells after 72 hrs by CCK-8 assay

[2] = biological target: Phosphatidylinositol 4,5-bisphosphate 3-kinase catalytic subunit alpha isoform (Homo sapiens, UniProt P42336, H1047R); assay: Inhibition of PI3Kalpha H1047R mutant (unknown origin) by HTRF assay
Sequence of Phosphatidylinositol 4,5-bisphosphate 3-kinase catalytic subunit alpha isoform (Homo sapiens, UniProt P42336, H1047R) (P42336 whole entry H1047R, canonical isoform): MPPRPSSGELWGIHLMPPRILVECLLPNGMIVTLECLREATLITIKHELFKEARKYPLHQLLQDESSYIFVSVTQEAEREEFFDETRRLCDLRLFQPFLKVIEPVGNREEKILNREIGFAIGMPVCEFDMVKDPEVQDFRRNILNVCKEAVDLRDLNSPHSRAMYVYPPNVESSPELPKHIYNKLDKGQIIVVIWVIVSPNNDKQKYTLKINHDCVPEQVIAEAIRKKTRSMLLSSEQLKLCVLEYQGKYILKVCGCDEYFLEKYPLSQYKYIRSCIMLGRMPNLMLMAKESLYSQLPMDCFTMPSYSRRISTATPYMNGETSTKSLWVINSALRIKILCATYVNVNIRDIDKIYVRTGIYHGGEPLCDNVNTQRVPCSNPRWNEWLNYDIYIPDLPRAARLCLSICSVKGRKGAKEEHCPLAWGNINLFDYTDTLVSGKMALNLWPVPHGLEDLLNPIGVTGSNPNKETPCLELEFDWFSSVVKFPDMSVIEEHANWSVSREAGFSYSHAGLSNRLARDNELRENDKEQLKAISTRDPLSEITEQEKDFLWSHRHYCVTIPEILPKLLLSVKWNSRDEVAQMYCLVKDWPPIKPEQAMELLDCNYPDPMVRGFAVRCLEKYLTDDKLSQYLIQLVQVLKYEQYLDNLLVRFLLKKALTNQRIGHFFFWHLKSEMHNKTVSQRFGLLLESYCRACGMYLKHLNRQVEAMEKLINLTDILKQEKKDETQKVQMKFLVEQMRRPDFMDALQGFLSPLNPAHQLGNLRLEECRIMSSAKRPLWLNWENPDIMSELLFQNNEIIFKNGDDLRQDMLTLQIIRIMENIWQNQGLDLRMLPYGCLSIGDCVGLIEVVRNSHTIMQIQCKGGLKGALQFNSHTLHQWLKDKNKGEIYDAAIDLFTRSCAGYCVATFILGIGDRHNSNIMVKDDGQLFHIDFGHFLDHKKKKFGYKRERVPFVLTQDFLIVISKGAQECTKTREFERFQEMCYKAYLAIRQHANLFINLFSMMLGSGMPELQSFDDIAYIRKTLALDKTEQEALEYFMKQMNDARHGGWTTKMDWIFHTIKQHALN

[3] = test system: HCT-116; conditions: Homo sapiens, HCT-116, 72 h
[4] = biological target: Phosphatidylinositol 4,5-bisphosphate 3-kinase catalytic subunit alpha isoform (Homo sapiens, UniProt P42336); assay: Inhibition of wild type PI3Kalpha (unknown origin) after 40 mins by kinase-Glo reagent based luminescence assay
Sequence of Phosphatidylinositol 4,5-bisphosphate 3-kinase catalytic subunit alpha isoform (Homo sapiens, UniProt P42336) (P42336 whole entry, canonical isoform): as the sequence (P42336 whole entry H1047R, canonical isoform) above, with R1047H counted along it

[5] = Inhibition of mTORC1 (unknown origin) after 40 mins by kinase-Glo reagent based luminescence assay; parameters: species or system Homo sapiens
[6] = biological target: Phosphatidylinositol 4,5-bisphosphate 3-kinase catalytic subunit beta isoform (Homo sapiens, UniProt P42338); assay: Inhibition of PI3Kbeta (unknown origin) after 40 mins by kinase-Glo reagent based luminescence assay
Sequence of Phosphatidylinositol 4,5-bisphosphate 3-kinase catalytic subunit beta isoform (P42338 whole entry, canonical isoform): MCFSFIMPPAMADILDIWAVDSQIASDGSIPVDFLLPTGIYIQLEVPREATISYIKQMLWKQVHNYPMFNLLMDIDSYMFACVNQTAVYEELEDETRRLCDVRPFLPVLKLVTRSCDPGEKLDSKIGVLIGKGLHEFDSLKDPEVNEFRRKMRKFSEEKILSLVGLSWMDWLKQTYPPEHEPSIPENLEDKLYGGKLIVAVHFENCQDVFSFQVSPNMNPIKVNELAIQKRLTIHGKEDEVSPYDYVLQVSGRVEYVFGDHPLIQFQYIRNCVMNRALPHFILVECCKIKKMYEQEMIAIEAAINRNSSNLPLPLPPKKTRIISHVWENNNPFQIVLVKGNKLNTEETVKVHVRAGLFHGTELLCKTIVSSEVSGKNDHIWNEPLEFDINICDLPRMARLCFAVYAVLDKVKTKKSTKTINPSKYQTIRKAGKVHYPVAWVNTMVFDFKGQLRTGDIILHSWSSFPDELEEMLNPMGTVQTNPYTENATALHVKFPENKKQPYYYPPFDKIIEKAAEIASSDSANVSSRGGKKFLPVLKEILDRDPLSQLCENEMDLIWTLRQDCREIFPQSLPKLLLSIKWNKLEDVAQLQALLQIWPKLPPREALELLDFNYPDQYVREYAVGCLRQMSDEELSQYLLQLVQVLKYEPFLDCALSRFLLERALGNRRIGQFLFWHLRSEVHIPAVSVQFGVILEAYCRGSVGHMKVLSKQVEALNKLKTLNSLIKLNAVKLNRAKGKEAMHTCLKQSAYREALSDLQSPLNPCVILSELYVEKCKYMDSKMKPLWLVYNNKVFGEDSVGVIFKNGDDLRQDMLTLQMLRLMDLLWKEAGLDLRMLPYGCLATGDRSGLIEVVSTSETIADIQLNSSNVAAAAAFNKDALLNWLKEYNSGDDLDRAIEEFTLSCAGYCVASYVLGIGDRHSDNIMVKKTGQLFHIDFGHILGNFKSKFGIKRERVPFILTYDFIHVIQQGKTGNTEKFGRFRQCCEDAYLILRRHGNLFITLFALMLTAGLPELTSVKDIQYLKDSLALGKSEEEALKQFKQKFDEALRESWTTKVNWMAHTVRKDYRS

[7] = biological target: T1, Phosphatidylinositol 4,5-bisphosphate 3-kinase catalytic subunit delta isoform (Homo sapiens, UniProt O00329); assay: Inhibition of PI3Kdelta (unknown origin) after 40 mins by kinase-Glo reagent based luminescence assay
T1 sequence (O00329 whole entry): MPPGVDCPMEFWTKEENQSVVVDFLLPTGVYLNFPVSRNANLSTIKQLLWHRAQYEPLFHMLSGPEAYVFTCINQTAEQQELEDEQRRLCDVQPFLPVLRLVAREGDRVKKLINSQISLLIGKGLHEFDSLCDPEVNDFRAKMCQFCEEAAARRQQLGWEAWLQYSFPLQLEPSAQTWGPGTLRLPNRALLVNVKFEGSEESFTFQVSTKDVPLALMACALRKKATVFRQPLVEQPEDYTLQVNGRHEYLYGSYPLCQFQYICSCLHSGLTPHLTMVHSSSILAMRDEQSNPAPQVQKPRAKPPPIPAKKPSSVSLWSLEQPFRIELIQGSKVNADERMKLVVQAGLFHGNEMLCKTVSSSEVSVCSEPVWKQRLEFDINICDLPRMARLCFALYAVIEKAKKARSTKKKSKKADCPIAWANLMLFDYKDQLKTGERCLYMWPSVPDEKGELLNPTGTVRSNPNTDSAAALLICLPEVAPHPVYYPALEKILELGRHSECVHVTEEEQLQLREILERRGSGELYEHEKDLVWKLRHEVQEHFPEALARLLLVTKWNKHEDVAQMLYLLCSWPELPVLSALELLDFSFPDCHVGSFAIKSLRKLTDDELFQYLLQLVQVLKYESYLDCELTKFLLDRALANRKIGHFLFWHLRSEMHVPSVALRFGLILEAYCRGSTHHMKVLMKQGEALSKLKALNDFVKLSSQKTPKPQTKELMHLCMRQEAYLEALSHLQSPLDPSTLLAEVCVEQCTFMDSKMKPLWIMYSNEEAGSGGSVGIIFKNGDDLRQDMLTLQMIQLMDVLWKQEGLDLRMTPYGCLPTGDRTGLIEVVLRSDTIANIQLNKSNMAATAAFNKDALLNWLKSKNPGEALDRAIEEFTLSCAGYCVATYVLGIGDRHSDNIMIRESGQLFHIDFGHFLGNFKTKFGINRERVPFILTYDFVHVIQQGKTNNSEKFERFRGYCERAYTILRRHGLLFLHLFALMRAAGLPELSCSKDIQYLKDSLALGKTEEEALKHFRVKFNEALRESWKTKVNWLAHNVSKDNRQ

[8] = biological target: Phosphatidylinositol 4,5-bisphosphate 3-kinase catalytic subunit gamma isoform (Homo sapiens, UniProt P48736); assay: Inhibition of PI3Kgamma (unknown origin) after 40 mins by kinase-Glo reagent based luminescence assay
Sequence of Phosphatidylinositol 4,5-bisphosphate 3-kinase catalytic subunit gamma isoform (P48736 whole entry, canonical isoform): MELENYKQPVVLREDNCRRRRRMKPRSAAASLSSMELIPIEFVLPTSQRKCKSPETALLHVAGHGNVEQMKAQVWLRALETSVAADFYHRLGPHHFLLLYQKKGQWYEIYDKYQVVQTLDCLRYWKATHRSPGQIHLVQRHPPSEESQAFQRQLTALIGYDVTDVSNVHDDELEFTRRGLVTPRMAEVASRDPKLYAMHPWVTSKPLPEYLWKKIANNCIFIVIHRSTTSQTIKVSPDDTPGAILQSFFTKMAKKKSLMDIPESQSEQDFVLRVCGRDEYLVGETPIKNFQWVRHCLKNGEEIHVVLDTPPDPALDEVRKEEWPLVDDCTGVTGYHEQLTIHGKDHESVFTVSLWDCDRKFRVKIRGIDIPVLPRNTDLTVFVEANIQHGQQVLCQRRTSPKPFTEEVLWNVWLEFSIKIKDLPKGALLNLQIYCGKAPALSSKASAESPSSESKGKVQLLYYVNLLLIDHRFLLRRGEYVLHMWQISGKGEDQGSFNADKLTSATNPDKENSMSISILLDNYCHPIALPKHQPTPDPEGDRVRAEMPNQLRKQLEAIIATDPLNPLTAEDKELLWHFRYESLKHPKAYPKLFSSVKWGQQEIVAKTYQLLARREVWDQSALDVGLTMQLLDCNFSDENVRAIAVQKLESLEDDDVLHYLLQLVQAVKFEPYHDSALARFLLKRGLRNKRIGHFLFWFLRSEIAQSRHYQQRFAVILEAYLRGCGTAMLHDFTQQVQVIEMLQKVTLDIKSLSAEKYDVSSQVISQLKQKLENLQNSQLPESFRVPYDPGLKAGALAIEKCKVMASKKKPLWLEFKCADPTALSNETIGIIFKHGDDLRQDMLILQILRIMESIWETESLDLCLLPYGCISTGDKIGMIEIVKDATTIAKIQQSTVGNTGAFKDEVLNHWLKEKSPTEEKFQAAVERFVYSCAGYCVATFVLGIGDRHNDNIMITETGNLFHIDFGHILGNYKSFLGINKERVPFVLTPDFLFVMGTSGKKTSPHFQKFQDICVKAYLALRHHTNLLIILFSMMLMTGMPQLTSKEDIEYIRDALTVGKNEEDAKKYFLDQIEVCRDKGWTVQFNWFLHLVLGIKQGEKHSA

[9] = test system: HCT-116; assay: Induction of apoptosis in human HCT116 cells assessed as necrotic cells at 5 uM after 24 hrs by Annexin V-FITC/PI staining based flow cytometry (reference value: 0.39%); format: functional
[10] = test system: HCT-116; assay: Induction of apoptosis in human HCT116 cells assessed as early apoptotic cells at 5 uM after 24 hrs by Annexin V-FITC/PI staining based flow cytometry (reference value: 4.07%); format: functional
[11] = test system: HCT-116; assay: Induction of autophagy in human HCT116 cells assessed as autophagic vacuole formation at 5 uM after 6 hrs by MDC staining based fluorescence microscopic analysis; format: functional, cell-based
[12] = test system: HCT-116; assay: Induction of autophagy in human HCT116 cells assessed as accumulation of GFP/mRFP-tagged LC3 accumulation in cytoplasm after 12 hrs by laser scanning confocal microscopic analysis; format: functional, cell-based
[13] = test system: HCT-116; assay: Induction of apoptosis in human HCT116 cells assessed as late apoptotic cells at 5 uM after 24 hrs by Annexin V-FITC/PI staining based flow cytometry (reference value: 2.35%); format: functional
[14] = test system: HCT-116; assay: Induction of apoptosis in human HCT116 cells assessed as viable cells at 5 uM after 24 hrs by Annexin V-FITC/PI staining based flow cytometry (reference value: 93%); format: functional; conditions: HCT-116, 24 h, read-out: Activity

Row | Structure (SMILES) | IC50 [1] [µM] | EC50 [2] [µM] | IC50 [3] [µM] | also measured
1 | O=C(Cc1ccc(Cl)c(Cl)c1)c1ccc(O)c(O)c1O | 48.9 | 8.9 | 35.5 | –
2 | O=C(Cc1ccc(F)c(Cl)c1)c1ccc(O)c(O)c1O | > 50 | 9.7 | 47.3 | –
3 | Cn1c(=O)n(-c2ccc(C(C)(C)C#N)cc2)c2c3cc(-c4cnc5ccccc5c4)ccc3ncc21 [DACTOLISIB] | – | – | – | EC50 [5]: 0.079 µM
4 | O=C(Cc1ccc(C(F)(F)F)cc1)c1ccc(O)c(O)c1O | > 50 | 58.4 | > 50 | –
5 | O=C(Cc1ccccc1Cl)c1ccc(O)c(O)c1O | > 50 | > 500 | > 50 | –
6 | Oc1ccc(-c2n[nH]cc2-c2ccc(Cl)c(Cl)c2)c(O)c1O | – | – | – | EC50 [6]: 5.7 µM; EC50 [7]: 19.1 µM; EC50 [8]: 10 µM
7 | O=C(Cc1ccc(Cl)cc1)c1cccc(O)c1O | > 50 | > 500 | > 50 | –

Second part, led by results:

Row | IC50 [1] [µM] | EC50 [2] [µM] | IC50 [3] [µM] | Structure (SMILES) | also measured
8 | > 50 | > 500 | > 50 | O=C(Cc1ccccc1F)c1ccc(O)c(O)c1O | –
9 | > 50 | 242 | > 50 | COc1ccc(CC(=O)c2ccc(O)c(O)c2O)cc1OC | –
10 | > 50 | 115 | > 50 | O=C(Cc1ccc(Cl)cc1)c1c(O)cc(O)cc1O | EC50 [4]: 79.3 µM
11 | > 50 | 98.2 | > 50 | O=C(Cc1cccc(Cl)c1)c1ccc(O)c(O)c1O | –
12 | > 50 | 196 | > 50 | O=C(Cc1ccc(Cl)cc1)c1ccc(O)cc1O | –
13 | > 50 | 69.3 | > 50 | O=C(Cc1ccc(Cl)cc1)c1ccc(O)c(O)c1O | EC50 [4]: 35.2 µM
14 | > 50 | 170 | > 50 | O=C(Cc1ccc(F)cc1)c1ccc(O)c(O)c1O | –
15 | 5.27 | – | 1.31 | FC(F)c1nc2ccccc2n1-c1nc(N2CCOCC2)nc(N2CCOCC2)n1 [ZSTK-474] | Activity [9]: 0.2%; Activity [10]: 5.6%; Activity [11]: Active; Activity [12]: Dose-dependent effect; Activity [13]: 1.29%; viability at 5 µM [14]: 92%
